Data as given in ChEMBL document CHEMBL1154047, “Chiral gossypol derivatives: evaluation of their anticancer activity and molecular modeling” (Eur J Med Chem, 2009).
pIC50: −log10 of the molar value. “And” between values parts separate entries of the source, which are not always exact repeats. Equal values may be shown once.

How the values were obtained:
[1] = Ratio of compound IC50 to cisplatin IC50 for human M85 cells; assay type: functional
[2] = Ratio of compound IC50 to (-)-gossypol IC50 for human U87 cells; assay type: functional, U-87MG ATCC
HeLa [3] = assay: Anticancer activity against human HeLa cells after 48 hrs by MTT assay; assay type: functional, cell-based
[4] = Anticancer activity against human M85 cells after 48 hrs by MTT assay; assay type: functional, cell-based
[5] = Anticancer activity against human U87 cells after 48 hrs by MTT assay; assay type: functional, cell-based, U-87MG ATCC
HeLa [6] = assay: Ratio of compound IC50 to (-)-gossypol IC50 for human HeLa cells; assay type: functional
[7] = Ratio of compound IC50 to cisplatin IC50 for human U87 cells; assay type: functional, U-87MG ATCC
[8] = Ratio of compound IC50 to (-)-gossypol IC50 for human M85 cells; assay type: functional
HeLa [9] = assay: Ratio of compound IC50 to cisplatin IC50 for human HeLa cells; assay type: functional

Row | pIC50 (HeLa [3]; hela) | pIC50 (HeLa [3]; Homo sapiens, HeLa, 48 h) | SMILES | Ratio IC50 [1] | Ratio IC50 [2] | pIC50 ([4]; m85) | pIC50 ([5]; u-87mg atcc) | Ratio IC50 (HeLa [6]) | Ratio IC50 [7] | Ratio IC50 [8] | Ratio IC50 (HeLa [9]) | pIC50 ([4]; Homo sapiens, M85, 48 h) | pIC50 ([5]; Homo sapiens, U-87 MG, 48 h)
1 |  | 4.97 | Cc1cc2c(c(O)c1-c1c(C)cc3c(c1O)/C(=C/NCCCO)C(=O)C(O)=C3C(C)C)/C(=C/NCCCO)C(=O)C(O)=C2C(C)C (stereo in doubt; 4a) | 1.42 | 0.96 | 4.68 | 4.54 | 0.6 | 1.7 | 1.15 | 0.85 |  | 
2 | 4.90 |  | Cc1cc2c(c(O)c1-c1c(C)cc3c(c1O)/C(=C/NCCCO)C(=O)C(O)=C3C(C)C)/C(=C/NCCCO)C(=O)C(O)=C2C(C)C (stereo in doubt; 4b) | 0.36 | 0.4 | 5.27 | 4.92 | 0.7 | 0.71 | 0.29 | 0.99 |  | 
3 | 4.25 |  | Cc1cc2c(c(O)c1-c1c(C)cc3c(c1O)/C(=C/NC1CC1)C(=O)C(O)=C3C(C)C)/C(=C/NC1CC1)C(=O)C(O)=C2C(C)C (stereo in doubt; 5a) | 1.17 |  |  | < 4.10 | 3.14 |  | 0.95 | 4.44 | 4.76 | 
4 | 4.87 |  | Cc1cc2c(c(O)c1-c1c(C)cc3c(c1O)/C(=C/NC1CC1)C(=O)C(O)=C3C(C)C)/C(=C/NC1CC1)C(=O)C(O)=C2C(C)C (stereo in doubt; 5b) |  | 1.07 | 4.76 | 4.49 | 0.76 | 1.89 |  | 1.07 |  | 
5 |  | 4.13 | Cc1cc2c(c(O)c1-c1c(C)cc3c(c1O)/C(=C/Nc1ccc(Br)cc1)C(=O)C(O)=C3C(C)C)/C(=C/Nc1ccc(Br)cc1)C(=O)C(O)=C2C(C)C (stereo in doubt; 6a) |  |  |  |  | 4.14 |  |  | 5.85 | < 4.10 | < 4.10
6 | 4.31 |  | Cc1cc2c(c(O)c1-c1c(C)cc3c(c1O)/C(=C/Nc1ccc(Br)cc1)C(=O)C(O)=C3C(C)C)/C(=C/Nc1ccc(Br)cc1)C(=O)C(O)=C2C(C)C (stereo in doubt; 6b) | 5.26 |  | 4.11 |  | 2.76 |  | 4.26 | 3.9 |  | 
7 |  | 4.62 | Cc1cc2c(c(O)c1-c1c(C)cc3c(c1O)/C(=C/NC(C)C)C(=O)C(O)=C3C(C)C)/C(=C/NC(C)C)C(=O)C(O)=C2C(C)C (stereo in doubt; 10a) | 2.3 | 0.96 |  |  | 1.34 | 1.7 | 1.86 | 1.88 | 4.47 | 4.54
8 | 4.77 |  | Cc1cc2c(c(O)c1-c1c(C)cc3c(c1O)/C(=C/NC(C)C)C(=O)C(O)=C3C(C)C)/C(=C/NC(C)C)C(=O)C(O)=C2C(C)C (stereo in doubt; 10b) | 2.04 | 0.81 | 4.52 | 4.61 | 0.96 | 1.43 | 1.66 | 1.36 |  | 

Second part, the molecule before the results:

Row | SMILES | pIC50 (HeLa [3]; hela) | pIC50 (HeLa [3]; Homo sapiens, HeLa, 48 h) | Ratio IC50 [1] | Ratio IC50 [2] | pIC50 ([4]; m85) | pIC50 ([5]; u-87mg atcc) | Ratio IC50 (HeLa [6]) | Ratio IC50 [7] | Ratio IC50 [8] | Ratio IC50 (HeLa [9]) | pIC50 ([4]; Homo sapiens, M85, 48 h) | pIC50 ([5]; Homo sapiens, U-87 MG, 48 h)
9 | Cc1cc2c(c(O)c1-c1c(C)cc3c(c1O)/C(=C/N[C@H](CO)[C@H](O)c1ccc([N+](=O)[O-])cc1)C(=O)C(O)=C3C(C)C)/C(=C/N[C@H](CO)[C@H](O)c1ccc([N+](=O)[O-])cc1)C(=O)C(O)=C2C(C)C (stereo in doubt; 1a) | 4.71 |  | 1.28 | 1.01 | 4.72 | 4.51 | 1.1 | 1.79 | 1.03 | 1.56 |  | 
10 | Cc1cc2c(c(O)c1-c1c(C)cc3c(c1O)/C(=C/N[C@H](CO)[C@H](O)c1ccc([N+](=O)[O-])cc1)C(=O)C(O)=C3C(C)C)/C(=C/N[C@H](CO)[C@H](O)c1ccc([N+](=O)[O-])cc1)C(=O)C(O)=C2C(C)C (stereo in doubt; 1b) | 5.06 |  | <0.17 | 0.44 | > 5.60 | 4.88 | 0.49 | 0.78 | <0.14 | 0.69 |  | 
11 | Cc1cc2c(c(O)c1-c1c(C)cc3c(c1O)/C(=C/N[C@H](CO)Cc1ccccc1)C(=O)C(O)=C3C(C)C)/C(=C/N[C@H](CO)Cc1ccccc1)C(=O)C(O)=C2C(C)C (stereo in doubt; 2a) |  | 4.58 | 1.44 | 0.98 |  |  | 1.49 | 1.73 | 1.17 | 2.1 | 4.67 | 4.53
12 | Cc1cc2c(c(O)c1-c1c(C)cc3c(c1O)/C(=C/N[C@H](CO)Cc1ccccc1)C(=O)C(O)=C3C(C)C)/C(=C/N[C@H](CO)Cc1ccccc1)C(=O)C(O)=C2C(C)C (stereo in doubt; 2b) | 4.83 |  | 1.04 | 0.97 | 4.81 | 4.53 | 0.83 | 1.71 | 0.84 | 1.17 |  | 
13 | Cc1cc2c(c(O)c1-c1c(C)cc3c(c1O)/C(=C/NCCc1ccccc1)C(=O)C(O)=C3C(C)C)/C(=C/NCCc1ccccc1)C(=O)C(O)=C2C(C)C (stereo in doubt; 3a) |  | 4.29 |  |  |  |  | 2.91 |  |  | 4.11 | < 4.10 | < 4.10
14 | Cc1cc2c(c(O)c1-c1c(C)cc3c(c1O)/C(=C/NCCc1ccccc1)C(=O)C(O)=C3C(C)C)/C(=C/NCCc1ccccc1)C(=O)C(O)=C2C(C)C (stereo in doubt; 3b) | 4.40 |  |  |  |  |  | 2.24 |  |  | 3.17 |  | 
15 | COC(=O)[C@H](Cc1ccccc1)N/C=C1\C(=O)C(O)=C(C(C)C)c2cc(C)c(-c3c(C)cc4c(c3O)/C(=C/N[C@@H](Cc3ccccc3)C(=O)OC)C(=O)C(O)=C4C(C)C)c(O)c21 (stereo in doubt; 7a) |  | < 4.10 |  |  |  |  |  |  |  |  | < 4.10 | < 4.10
16 | COC(=O)[C@H](Cc1ccccc1)N/C=C1\C(=O)C(O)=C(C(C)C)c2cc(C)c(-c3c(C)cc4c(c3O)/C(=C/N[C@@H](Cc3ccccc3)C(=O)OC)C(=O)C(O)=C4C(C)C)c(O)c21 (stereo in doubt; 7b) | 4.16 |  | 4.32 |  | 4.19 |  | 3.88 |  | 3.5 | 5.48 |  | 
17 | COC(=O)[C@H](Cc1ccc(O)cc1)N/C=C1\C(=O)C(O)=C(C(C)C)c2cc(C)c(-c3c(C)cc4c(c3O)/C(=C/N[C@@H](Cc3ccc(O)cc3)C(=O)OC)C(=O)C(O)=C4C(C)C)c(O)c21 (stereo in doubt; 8a) |  | 4.66 | 3.52 | 1.06 | 4.28 | 4.49 | 1.22 | 1.88 | 2.84 | 1.73 |  | 
18 | COC(=O)[C@H](Cc1ccc(O)cc1)N/C=C1\C(=O)C(O)=C(C(C)C)c2cc(C)c(-c3c(C)cc4c(c3O)/C(=C/N[C@@H](Cc3ccc(O)cc3)C(=O)OC)C(=O)C(O)=C4C(C)C)c(O)c21 (stereo in doubt; 8b) | 4.94 |  | 1.09 | 0.48 | 4.79 | 4.84 | 0.64 | 0.85 | 0.89 | 0.9 |  | 
19 | COC(=O)[C@H](Cc1c[nH]c2ccccc12)N/C=C1\C(=O)C(O)=C(C(C)C)c2cc(C)c(-c3c(C)cc4c(c3O)/C(=C/N[C@@H](Cc3c[nH]c5ccccc35)C(=O)OC)C(=O)C(O)=C4C(C)C)c(O)c21 (stereo in doubt; 9a) |  | < 4.10 |  |  |  |  |  |  |  |  | < 4.10 | < 4.10
20 | COC(=O)[C@H](Cc1c[nH]c2ccccc12)N/C=C1\C(=O)C(O)=C(C(C)C)c2cc(C)c(-c3c(C)cc4c(c3O)/C(=C/N[C@@H](Cc3c[nH]c5ccccc35)C(=O)OC)C(=O)C(O)=C4C(C)C)c(O)c21 (stereo in doubt; 9b) |  |  | 3.51 |  | 4.28 |  |  |  | 2.84 |  |  | 
21 | COc1c(OC)c2c3c(c(-c4c(C)cc5c(C(C)C)c(OC)c(OC)c6c5c4OC6OC)c(C)cc3c1C(C)C)OC2OC (stereo not drawn) [(-)-GOSSYPOL HEXAMETHYL ETHER] |  | < 4.10 |  |  |  |  |  |  |  |  | < 4.10 | < 4.10
22 | Cc1cc2c(C(C)C)c(O)c(O)cc2c(O)c1-c1c(C)cc2c(C(C)C)c(O)c(O)cc2c1O [APOGOSSYPOL] | 4.85 | 4.59 | 4.11 | 1.17 and 0.94 | 4.21 | 4.55 | 1.43 and 0.79 | 2.08 and 1.67 | 3.33 | 2.02 and 1.12 | < 4.10 | 4.45
23 | CC1=C(C2=C(C)C(=O)c3c(c(C=O)c(O)c(O)c3C(C)C)C2=O)C(=O)c2c(C=O)c(O)c(O)c(C(C)C)c2C1=O [GOSSYPOLONE] |  | 4.63 | 1.9 | 0.86 |  |  | 1.31 | 1.53 | 1.54 | 1.85 | 4.55 | 4.58
24 | Cc1cc2c(C(C)C)c(O)c(O)c(C=O)c2c(O)c1-c1c(C)cc2c(C(C)C)c(O)c(O)c(C=O)c2c1O [GOSSYPOL] | 4.50 | 4.75 | 1.23 and 2.66 | 1 and 1.97 | 4.74 and 4.40 | 4.22 | 1 and 1.76 | 1.77 and 3.49 | 1 and 2.16 | 1.41 and 2.48 |  | 4.52
